Measured values: patent US12582720B2, “Compound for preventing or treating lipid metabolism-related diseases” (Fudan University, priority 2020, dated 2026)

Key:
[1] = tested on: lipid droplets in 3T3-L1 fat precursor cell differentiated fat cells; assay: Lipid droplets in 3T3-L1 fat precursor cell differentiated fat cells; format: cell-based, mouse; conditions: 3T3-L1 differentiated fat cells, 24 h
[2] = tested on: autophagosome-lipid droplet colocalization in MEF cells; assay: Colocalization of autophagosome and lipid droplets in mCherry-LC3B transfected MEF cells; format: cell-based, mouse; conditions: 5 μM, 3 h, compared to DMSO control
Description: (1) In MEF cells, mCherry-LC3B was expressed by cDNA plasmid transfection.
(2) OA was added to the culture medium 30 hours after transfection to induce lipid droplets.
(3) Compounds were added to treat cells 6 hours after induction.
(4) 3 hours after compounds addition, cells were fixed and BODIPY stained.
(5) The coverslips laid in the multi-well plates were removed, and imaged with the Zeiss 880 confocal microscope after mounted to observe the aggregation of LC3 puncta around the lipid droplets.
In MEF cells, mCherry-LC3B was expressed by cDNA plasmid transfection. At 30th hour of overexpression, OA was added into cells for lipid droplet induction. 6 hours later, the compound was added for 3 hours' treatment, and then cells were subjected to immunostaining. […] Lipid droplets (green) were stained with BODIPY stain, and nucleus were indicated with DAPI stain. […] In FIG. 24, the colocalized autophagosome-lipid droplet was marked with circles.

[3] = tested on: lipid droplets in LC3B knockout HEK293T cells; assay: Lipid droplets in LC3B knockout HEK293T cells; format: cell-based, human; conditions: 5 μM
Description: The effect of conjugated compounds (Compound 1A, Compound 2A, Compound 3A or Compound 4A at a concentration of 5 μM) on lipid droplets in LC3B knockout HEK293T cells was tested by a method similar to Example 2.

db/db mice = assay: Effect of the compound on db/db mouse; format: in vivo
From the text: Experimental animals: nineteen-week-old db/db male mice (C57BL/6J-Lepr^db/Lepr^db) were obtained from Shanghai Model Organisms Co., Ltd., and acclimatized for at least 1 week before experiments. The mice had ad libitum access to standard chow and water.
Normal control: The C57BL/6 male mice fed on standard irradiated chow diet (Shuyishuer Inc. cat. no. D12450J) from Changzhou Shuyishuer Biotechnology Co., Ltd. (Shuyishuer Inc.) were used as the normal control.
(§1) Mice were randomly divided into 7 groups, wherein 8 mice in each group, and the mice in each group were subjected to intraperitoneal injection to administer: (1) only vehicle (no DMSO) group: 0% DMSO+39% PEG300 (Selleck, cat. no. S6704)+5% Tween-80 (Selleck, cat. no. S6702)+56% distilled water, (2) DMSO group: 1% DMSO+39% PEG300+5% Tween-80+55% H2O (DMSO vehicle), (3) C3 group: Compound 3A was in DMSO vehicle, (4) C4 group: Compound 4A in DMSO vehicle, (5) SIII group: Sudan III DMSO vehicle, (6) GW5074 group: Compound A1 in DMSO vehicle, (7) DP group: Compound A5 in DMSO vehicle. For groups (3)-(7), the compound (30 mg/kg, administration volume 150 μL) was administered through intraperitoneally injection for consecutive 2 weeks, and once a day. The food and water intake were measured with an analytical electronic balance.
Bodyweight was weighed every day.
If time permitted, tail vein blood (30-50 μL) was collected every 1-3 days.
(§2) 24 hours after the time point of the last injection, end point maxillary surface blood sampling was performed on each mouse. All mice were Euthanized by cervical dislocation, and then tissue sample (e.g., liver samples) were obtained and stored in Eppendorf tubes at −80° C. for assay.
(§3) 12 days after initiation of administration, each mouse was scanned by a minispec nuclear magnetic resonance (NMR) instrument (Bruker LF50 II “Minispec” body composition analyzer, Bruker Optics) that was designed for experimental animals, and based on the measurement of solid and liquid parts of the samples, the body fat and lean body weight were determined by this device.
(§4) Serum: Tail vein blood samples (30-50 μL) were left to coagulate in […] blood collection tubes (Jiangsu Kangjian Medical Products Co., Ltd., model KJ002) at room temperature without interference, and then centrifuged at 2,000×g for 10 minutes at 4° C. to remove the clot. Supernatant was collected to obtain the serum.
(§5) Liver: Liver samples were obtained as described in (2). 100 mg of liver tissue was homogenized in 0.9 mL of absolute alcohol under ice-cold conditions, and then centrifuged (2,500 r.p.m/min, 10 min). Supernatant was collected, and then stored at −80° C.
(§6) The kits were used according to the instruction from manufacturer (TAG: TG kit, cat. no. A110-1-1; TC: T-CHO kit, cat. no. A111-1. FFA: NEFA kit, cat. No. A042-2-1; they were all from Nanjing Jiancheng Bioengineering Institute). TAG, TC and FFA levels in serum and liver samples were determined.
According to the lipidomic method as described above, the contents of liver total lipid, glycerolipid, sterol lipid, neutral sphingolipid and polar lipid were analyzed. The log 2-fold change (log2 FC) and statistical significance (p-value) relative to the DMSO group were calculated.

NASH mice = assay: Effect of the compound on NASH mouse model (CDAHFD); format: in vivo
Description: 15-micrometer cryosections were obtained from the liver (see “BODIPY staining of tissues” and processed for visualization of fibrosis by picro-sirius red staining as described in the literature (Sookoian S et al., Fatty Liver Disease Progresses into Severe NASH when Physiological Mechanisms of Tissue Homeostasis Collapse. Ann Hepatol 2018; 17:182-186.). The liver cryosections were washed with 1×PBS and then incubated at room temperature for 1 hour with the solution containing 0.1% vol/vol Direct Red 80 Direct Red 80 (for staining collagen in red as an indicator for liver fibrosis) and 0.04% Fast Green (Sigma-Aldrich, cat. no. F7258, for general protein staining as a background) in saturated aqueous solution of picric acid (Sigma., cat. no. P6744-1GA). The samples were imaged by using an Olympus inverted fluorescence microscope IX73, and the histological fibrosis images were analyzed by the imageJ software.
Experimental animals: ten-week-old C57BL/6 male mice were obtained from Hangzhou Ziyuan Inc. The mice had ad libitum access to water and a choline-deficient, L-amino acid-defined, high-fat diet (CDAHFD) containing 60% kcal fat obtained from Changzhou Shuyishuer Inc. for twelve weeks (including the two-week compound-injection period) to generate the non-alcoholic steatohepatitis (NASH) models.
as §1, §2, §3, §4, §5, §6

LC3B = LC3B (Homo sapiens, UniProt Q9GZQ8); assay: MST detection of affinity activity with LC3B; format: binding; design: His8 (with TEV site) (N); made in house; host or cells: Escherichia coli BL21(DE3)pLysS; conditions: MST; read-out: Kd (μM), equilibrium dissociation constant between the conjugated compound and LC3B
Description: The recombinant GST-LC3B proteins were prepared and purified, dialyzed into 1×PBS, and then labelled with the red fluorophore with the protein labeling kit RED-NHS (Nanotemper, cat. no. L001).
The MST experiments were performed using the Monolith NT.115 instrument (NanoTemper Technologies). The reaction buffer contains 20 mM HEPES, pH 7.4, 150 mM NaCl, and the protein concentration was 500 nM. The MST data were collected under 40% infrared laser power and 20% light-emitting diode power. The data were analyzed by Nanotemper software.

O=c1cc(-c2ccccc2)c2c(OCCCCCCCCCCOc3ccc4ccccc4c3/N=N/c3ccc(/N=N/c4ccccc4)cc3)cc(O)cc2o1 [Compound 4A, 7-hydroxy-4-phenyl-5-((10-((1-((E)-(4-((E)-phenyldiazenyl)phenyl)diazenyl)naphthalen-2-yl)oxy)decyl)oxy)-2H-chromen-2-one]
effect of the compound on lipid droplets under the treatment of NH4Cl ([1]; 5 μM + NH4Cl 5 mM): blocked
amount of lipid droplets ([1]; 5 μM): could reduce
size of lipid droplets ([1]; 5 μM): could change
ratio of colocalization of red and green aggregation point (autophagosome-lipid droplet) [2]: significantly increased
reduction of lipid droplets induced by conjugated compounds after knockout of LC3B gene [3]: largely blocked
body weight-normalized food intake (db/db mice): marginally significant increase
FFA levels in serum and liver (db/db mice; 30 mg/kg ip): significantly reduced
body weight-normalized food and water intake (db/db mice; 30 mg/kg ip): no significant reduction
weight loss (total body weight) (db/db mice; 30 mg/kg ip once a day, within 2 weeks): about 15%
ratio of body fat/lean body weight (db/db mice; 30 mg/kg ip, 12 days, vs DMSO group): significantly reduced
amount and size of liver lipid droplets (BODIPY493/503) (db/db mice; 30 mg/kg ip, 14 days): significantly reduced
liver weight (db/db mice; 30 mg/kg ip, 14 days, vs DMSO group): significantly reduced
TAG levels in liver and serum (db/db mice; 30 mg/kg ip, vs DMSO group): significantly reduced
TC levels in liver and serum (db/db mice; 30 mg/kg ip, vs DMSO group): significantly reduced
reduction of liver total lipid concentration (liver lipid level) (db/db mice; absolute quantitative lipidomics, vs DMSO group): 41.5±13.9%
TAG in liver (db/db mice; lipidomics): significantly reduced
most glycerolipids, sterol lipids and neutral sphingolipids in liver (db/db mice; lipidomics): reduced
other major neutral lipids, cholesteryl ester (ChE) and diglyceride (DG) in liver (db/db mice; lipidomics): slightly reduced
polar lipids, e.g., glycerophospholipids in liver (db/db mice; lipidomics): did not reduce
PE and PI (db/db mice; liver lipidomics): unaffected
TAG and ChE with different chain carbon numbers or saturated bond numbers (db/db mice; liver lipidomics): all reduced
liver weight (NASH mice; 30 mg/kg ip): significantly reduced
ratio of body fat/lean body weight (NASH mice; 30 mg/kg ip): significantly reduced
serum and liver TAG levels (NASH mice; 30 mg/kg ip): reduced
serum and liver TC levels (NASH mice; 30 mg/kg ip): reduced
body weight (NASH mice; 30 mg/kg ip once a day, 2 weeks): significantly reduced
liver lipid droplets (NASH mice; 30 mg/kg ip, 14 days): significantly reduced
degree of interstitial fibrosis in liver tissue (picro-sirius staining) (NASH mice; 30 mg/kg ip, 14 days, compared with control compound): significantly reduced
Kd (LC3B): 0.39 µM
